Data set [1] in a line: Solubility. It counts as physicochemical. The following applies: read-out: S.
In data set [2] the test system is Oryctolagus cuniculus. Briefly: In vivo intraocular pressure reduction was determined in rabbits after effective topical dose (duration expressed as number of time points, P<=0.05). In kind it is functional, Eye.
Data set [3] concerns Oryctolagus cuniculus. Briefly: METD(minimum effective topical dose of the compound) for ocular hypotensive activity in alpha-CT-rabbits. In kind it is functional, Eye.
Data set [4] in a line: Extent of reaction with 20 equiv of reduced glutathione (GSH) in 20 hours at pH 7.4 and 37 degree C.
A short description of data set [5]: Extent of reaction with 5 equiv of reduced glutathione (GSH) between 16 and 22 hours at pH 7.4 and 37 degree C.
The next data set deals with Carbonic anhydrase 2 (Homo sapiens, UniProt P00918).
The species named for data set [6] is Cavia porcellus. Briefly: Number of animals showing dermal sensitization/ number of animals tested in Magnusson-Kligman assay; 15/40. In kind it is functional.
For data set [7], the species on record is Cavia porcellus. Briefly: Number of animals showing dermal sensitization/ number of animals tested in Magnusson-Kligman assay; 8/19. In kind it is functional.
For data set [8], the species on record is Cavia porcellus. Briefly: Number of animals showing dermal sensitization/ number of animals tested in Magnusson-Kligman assay. In kind it is functional.

≈ marks a conversion by molar mass, not a printed value. Where only a bound is given, the exact number is not on record here.

Description for Carbonic anhydrase 2: In vitro inhibition of human carbonic anhydrase II (0.1 nM).

Consider `NS(=O)(=O)c1cc2ccc(O)cc2[nH]1`, for which, in [1], the solubility came to 4800 µg/mL (≈ 22600 µM). Besides, the “Max IOP reduction” value with Oryctolagus cuniculus [2] is recorded as -5 mmHg. The compound further showed an METD in the data set with Oryctolagus cuniculus [3] of 0.5%. The GSH in data set [4] was determined as 17%; in [5] it was 2.5%. Besides, the IC50 on Carbonic anhydrase 2 came out at 0.03 µM.
For `NS(=O)(=O)c1cc2cc3c(cc2[nH]1)OCO3`, in [1], the solubility amounted to 50 µg/mL (≈ 208 µM). On Carbonic anhydrase 2, this compound yielded a half-inhibitory concentration (IC50) of 0.025 µM.
Consider `CC(=O)Oc1ccc2cc(S(N)(=O)=O)[nH]c2c1`, for which the IC50 against Carbonic anhydrase 2 was determined as 0.032 µM.
As for `COc1ccc2[nH]c(S(N)(=O)=O)cc2c1`, the solubility in data set [1] turned out to be 150 µg/mL (≈ 663 µM). This compound came in with an IC50 against Carbonic anhydrase 2 of 0.016 µM.
With `CC(=O)Oc1ccc2[nH]c(S(N)(=O)=O)cc2c1`, the solubility in [1] came out at 220 µg/mL (≈ 865 µM). Besides, at Carbonic anhydrase 2, half-maximal inhibition (IC50) required 0.011 µM.
As to `CC(C)(C)C(=O)Oc1ccc2oc(S(N)(=O)=O)cc2c1`, the GSH in data set [5] was 3.4%. Besides, 0.003 µM corresponded to half-maximal inhibition against Carbonic anhydrase 2 (IC50).
As to `CC(=O)Oc1ccc2cc(S(N)(=O)=O)oc2c1`, the “Max IOP reduction” value in the data set on Oryctolagus cuniculus [2] was -8.8 mmHg. For the same compound, in the data set on Oryctolagus cuniculus [3], the METD is on record as 0.5%. Inhibition on Carbonic anhydrase 2 was half-maximal at 0.0055 µM (IC50).
As to `CC(=O)Oc1ccc2oc(S(N)(=O)=O)cc2c1`, in data set [1], the solubility was 190 µg/mL (≈ 744 µM). The Max IOP reduction with Oryctolagus cuniculus [2] was -5.7 mmHg. Moreover, the IC50 against Carbonic anhydrase 2 amounted to 0.0065 µM.
Turning to `NS(=O)(=O)c1cc2cc(O)ccc2o1`, the solubility in data set [1] came to 2100 µg/mL (≈ 9850 µM). For the same compound, in the data set listed under Cavia porcellus [6], the No. of animals was determined as 15. Also, in the data set with Oryctolagus cuniculus [2], the “Max IOP reduction” value is -6 mmHg. This compound also registered an METD with Oryctolagus cuniculus [3] of 0.1%. The GSH in data set [4] was found to be 9%; in [5] it was 4%. The same compound registered an IC50 at Carbonic anhydrase 2 of 0.0065 µM.
Regarding `COc1ccc2cc(S(N)(=O)=O)n(S(=O)(=O)c3ccccc3)c2c1`, on Carbonic anhydrase 2, the IC50 is > 10 µM.
The same measure, in the same setting: as for `COc1ccc2cc(S(N)(=O)=O)oc2c1`, the figure is 0.015 µM.
Consider `NS(=O)(=O)c1cc2ccccc2[nH]1`, for which the solubility in [1] stood at 850 µg/mL (≈ 4330 µM). For the same compound, the GSH in [5] turned out to be 0%. The compound further returned an IC50 at Carbonic anhydrase 2 of 0.045 µM.
As to `NS(=O)(=O)c1cc2ccc(O)cc2o1`, the solubility in data set [1] is 2800 µg/mL (≈ 13100 µM). Also, the No. of animals in the data set listed under Cavia porcellus [7] is on record as 8. Also, the “Max IOP reduction” value in the data set on Oryctolagus cuniculus [2] was -5.2 mmHg. For the same compound, the METD in the data set on Oryctolagus cuniculus [3] is listed as 0.5%. In addition, the GSH in [4] came out at 23%; in [5] it was 4.9%. This compound registered an IC50 against Carbonic anhydrase 2 of 0.011 µM.
Consider `NS(=O)(=O)c1cc2ccccc2o1`, for which the solubility in [1] came out at 480 µg/mL (≈ 2430 µM). Further, the GSH in [4] was determined as 10%; in data set [5], 0%. The compound also registered an IC50 against Carbonic anhydrase 2 of 0.008 µM.
Consider `COc1ccc2cc(S(N)(=O)=O)[nH]c2c1`, for which, in data set [1], the solubility is 520 µg/mL (≈ 2300 µM). Further, the IC50 on Carbonic anhydrase 2 is 0.06 µM.
Turning to `Nc1ccc2cc(S(N)(=O)=O)oc2c1`, the solubility in data set [1] is 80 µg/mL (≈ 377 µM). Moreover, the GSH in data set [4] is 17%; in [5], 11%. The midpoint of inhibition against Carbonic anhydrase 2, the IC50, lay at 0.025 µM.
With `NS(=O)(=O)c1cc2ccc(O)cc2s1`, in data set [1], the solubility came to 430 µg/mL (≈ 1880 µM). Besides, the No. of animals in the data set listed under Cavia porcellus [8] is 0. Also, the “Max IOP reduction” value in the data set on Oryctolagus cuniculus [2] is given as -5.5 mmHg. Also, in the data set with Oryctolagus cuniculus [3], the METD came out at 0.05%. Moreover, the GSH was 2.9% in data set [4] and 0% in data set [5].
Turning to `CC(=O)Oc1ccc2cc(S(N)(=O)=O)sc2c1`, the “Max IOP reduction” value in the data set with Oryctolagus cuniculus [2] is reported as -5.3 mmHg. Further, the METD in the data set with Oryctolagus cuniculus [3] is given as 0.1%.
As for `Nc1ccc2oc(S(N)(=O)=O)cc2c1`, the solubility in data set [1] was 280 µg/mL (≈ 1320 µM). In addition, the “Max IOP reduction” value in the data set with Oryctolagus cuniculus [2] was -6 mmHg. Further, the METD with Oryctolagus cuniculus [3] came to 0.5%. Moreover, the GSH in data set [5] came out at 11%. Also, the IC50 on Carbonic anhydrase 2 came out at 0.009 µM.
As to `COc1ccc2cc(S(N)(=O)=O)n(C)c2c1`, the solubility in [1] amounted to 40 µg/mL (≈ 166 µM). Further, the GSH in data set [4] is 37%. In addition, on Carbonic anhydrase 2, inhibition was half-maximal at 0.11 µM (IC50).
For `Cc1c(S(N)(=O)=O)oc2cc(O)ccc12`, in data set [4], the GSH was 47%. For the same compound, the IC50 against Carbonic anhydrase 2 is 0.21 µM.
Turning to `NS(=O)(=O)c1cc2cc(O)ccc2[nH]1`, the solubility in data set [1] came to 1900 µg/mL (≈ 8950 µM). The No. of animals in the data set filed under Cavia porcellus [8] is 19. In the data set with Oryctolagus cuniculus [2], the “Max IOP reduction” value is recorded as -7.5 mmHg. In the data set with Oryctolagus cuniculus [3], this compound registered an METD of 0.1%. The GSH was found to be 13% in data set [4] and 0.7% in [5]. Moreover, half-maximal inhibition on Carbonic anhydrase 2 (IC50) was put at 0.022 µM.
In the case of `COc1ccc2oc(S(N)(=O)=O)cc2c1`, the solubility in data set [1] worked out at 540 µg/mL (≈ 2380 µM). Further, the GSH in data set [4] is 10%. The midpoint of inhibition against Carbonic anhydrase 2, the IC50, lay at 0.0051 µM.
In the case of `CC(C)(C)C(=O)Oc1ccc2cc(S(N)(=O)=O)oc2c1`, the “Max IOP reduction” value in the data set on Oryctolagus cuniculus [2] was -5.3 mmHg. In the data set on Oryctolagus cuniculus [3], this compound came in with an METD of 0.5%.

As usually defined, the IC50 is the concentration that inhibits the measured activity by half. A low value points to higher potency.

The values are drawn from ChEMBL document CHEMBL1124833, “Topically active carbonic anhydrase inhibitors. 3. Benzofuran- and indole-2-sulfonamides” (J Med Chem, 1990).
